Measured values reported in paper PMC8765048 (JCI Insight, 2022).
Where two headings read alike, the source gives them in different places.

Key:
SARS-CoV-2 [1] = test: Combinatorial sangivamycin/remdesivir efficacy testing, Vero E6 cells; type: cell-based; conditions: read-out: IC50 (nM), S:R by [Sangivamycin]
[2] = test system: SARS-CoV-2 B.1.617.2 (Delta); test: microbe, parasite or virus in culture; type: cell-based
SARS-CoV-2 P.1 (Gamma) = test: microbe, parasite or virus in culture; type: cell-based
[3] = Plasma protein binding assessment (equilibrium dialysis); type: in vitro ADME; conditions: 37°C
Procedure: The plasma protein binding assay was performed by Cyprotex to assess sangivamycin plasma protein binding. Equilibrium dialysis was used to determine the extent of binding of a compound to plasma proteins. A semipermeable membrane separated a protein-containing compartment (PC) from a protein-free compartment (PF). The system was set to equilibrate at 37°C. The test compound present in each compartment was then quantified by LC-MS/MS. The extent of binding is reported as a fraction unbound (fu) value, which is calculated as fu = 1 – ([PC – PF]/PC).

A549 (human lung) = test: CellTox Green Cytotoxicity Assay; conditions: ratio > 1 cytostatic, ≤ 1 cytotoxic
SARS-CoV-2 [4] = test: Combinatorial sangivamycin/remdesivir efficacy testing, Calu-3 cells; type: cell-based; conditions: Severe acute respiratory syndrome coronavirus 2, Calu-3; read-out: IC50 (nM), S:R by [Sangivamycin]
SARS-CoV-2 WA1 = test: microbe, parasite or virus in culture; type: cell-based; conditions: Severe acute respiratory syndrome coronavirus 2, Caco-2, 96 h
[5] = test system: Huh-7 (human hepatocarcinoma); test: CellTox Green Cytotoxicity Assay; conditions: ratio > 1 cytostatic, ≤ 1 cytotoxic
[6] = mice, cited from earlier work
SARS-CoV-2 [7] = test: Combinatorial sangivamycin/remdesivir efficacy testing, Caco-2 cells; type: cell-based; conditions: Severe acute respiratory syndrome coronavirus 2, Caco-2; read-out: IC50 (nM), S:R by [Sangivamycin]
SARS-CoV-2 P.2 (Zeta) = test: microbe, parasite or virus in culture; type: cell-based
[8] = Severe acute respiratory syndrome coronavirus 2, VeroE6/TMPRSS2, 18 h
[9] = Severe acute respiratory syndrome coronavirus 2, Calu-3, 24 h
[10] = Severe acute respiratory syndrome coronavirus 2, Vero C1008, 24 h

SMILES: NC(=O)c1cn([C@@H]2O[C@H](CO)[C@@H](O)[C@H]2O)c2ncnc(N)c12 [Sangivamycin, sangivamycin]
- IC50 (SARS-CoV-2 [1]; Severe acute respiratory syndrome coronavirus 2, Vero C1008): 34 nM
- IC50 (SARS-CoV-2 [1]; listed as S:R 1:0): 34.3 nM
- IC50 [2]: 80.4 nM
- SI (selectivity index, CC50/IC50) ([2]; B.1.617.2 (Delta), Vero E6/TMPRSS2 cells): >7.5
- IC50 [2, 8]: 80 nM
- IC90 [2, 8]: 263 nM
- SI (selectivity index, CC50/IC50) (SARS-CoV-2 P.1 (Gamma); P.1 (Gamma), Calu-3 cells): >9.5
- IC50 (SARS-CoV-2 P.1 (Gamma); [9]): 63.3 nM
- IC90 (SARS-CoV-2 P.1 (Gamma); [9]): 204 nM
- fraction unbound ([3]; human): 0.83
- fraction unbound ([3]; mouse): 0.879
- Ratio CellTox Green/CellTiter-Glo (A549 (human lung)): >28.9
- IC50 (SARS-CoV-2 [4]): 69.6 nM
- IC50 (SARS-CoV-2 WA1): 14 ± 2 nM
- IC90 (SARS-CoV-2 WA1): 63 ± 17 nM
- Ratio CellTox Green/CellTiter-Glo [5]: >10.3
- half-life in blood ([6]; 3H-labeled sangivamycin, i.p. 8 mg/kg): 50 h
- drug-derived radioactivity accounted for in the urine ([6]; over a period of 12 days): 40%
- IC50 (SARS-CoV-2 [7]): 39 nM
- SI (selectivity index, CC50/IC50) (SARS-CoV-2 P.2 (Zeta); P.2 (Zeta), Vero E6 cells): >20.1
- IC50 (SARS-CoV-2 P.2 (Zeta); [10]): 29.8 nM
- IC90 (SARS-CoV-2 P.2 (Zeta); [10]): 125 nM
